According to paper PMC3079629, “Cloning and characterization of a 9-lipoxygenase gene induced by pathogen attack from Nicotiana benthamiana for biotechnological application” (BMC Biotechnology, 2011):

Biological target: T1, Nb-9-LOX (Nicotiana benthamiana, UniProt R4S2V6)
T1 construct: protein starts MSLEKI, ends NSVSI (from primers)
T1 sequence (R4S2V6 1-862): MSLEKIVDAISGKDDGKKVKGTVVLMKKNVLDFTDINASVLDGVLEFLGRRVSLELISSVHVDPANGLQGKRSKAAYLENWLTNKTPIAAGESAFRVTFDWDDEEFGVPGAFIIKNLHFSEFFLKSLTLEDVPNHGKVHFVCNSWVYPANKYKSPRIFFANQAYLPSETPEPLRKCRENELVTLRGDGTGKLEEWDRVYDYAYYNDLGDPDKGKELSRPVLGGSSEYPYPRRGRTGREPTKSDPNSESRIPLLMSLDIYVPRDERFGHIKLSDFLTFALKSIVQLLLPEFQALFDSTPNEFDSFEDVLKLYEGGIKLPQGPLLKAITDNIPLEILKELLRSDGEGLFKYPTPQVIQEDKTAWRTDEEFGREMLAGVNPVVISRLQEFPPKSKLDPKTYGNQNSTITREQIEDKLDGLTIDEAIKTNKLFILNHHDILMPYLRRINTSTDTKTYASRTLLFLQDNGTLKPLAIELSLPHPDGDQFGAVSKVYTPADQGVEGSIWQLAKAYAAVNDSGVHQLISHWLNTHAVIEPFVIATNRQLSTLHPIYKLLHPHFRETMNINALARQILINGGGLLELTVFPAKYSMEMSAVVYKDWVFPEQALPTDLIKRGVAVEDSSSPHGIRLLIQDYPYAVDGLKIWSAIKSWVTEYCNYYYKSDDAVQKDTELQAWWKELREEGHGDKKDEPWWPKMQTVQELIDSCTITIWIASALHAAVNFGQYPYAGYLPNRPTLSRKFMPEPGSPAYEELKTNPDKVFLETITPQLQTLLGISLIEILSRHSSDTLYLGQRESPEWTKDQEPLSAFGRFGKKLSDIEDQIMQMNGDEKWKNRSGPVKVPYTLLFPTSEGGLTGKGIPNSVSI
Experiment: spectrophotometry at […] nm, conjugated diene formation, crude yeast extract
Assay type: biochemical
Conditions: 50 mM sodium phosphate; pH 6.0 presumed for the Km (used after the optimum was found); room temperature; O2

SMILES: CCCCC/C=C\C/C=C\CCCCCCCC(=O)O [linoleic acid]
- Km: 3.9 µM
